Assays:
MSUT2 [1] = target: T1, MSUT2 (Homo sapiens (Human), UniProt Q6PJT7); assay: primary tau-inclusion neuronal assay (MSUT2 inhibitor activity); assay type: cell-based; conditions: for IC50: dose-dependent activity, primary tau-inclusion neuronal assay; for biological activity in the in vitro assay (SAR summary in words): preliminary SAR summary
Experimental: A variety of analogs in which the tricycle scaffold was modified were prepared and evaluated for their MSUT2 inhibitor activity.
The N-substitution pattern was also explored. The dose-dependent activity of these compounds was determined using a primary tau-inclusion neuronal assay and is summarized in Table 3 below.

MSUT2 [2] = target: T1, MSUT2; assay: NMR Saturation Transfer Difference studies; assay type: binding; conditions: 15 μM MSUT2 protein; down-field shift of ligand signals at 4.10 and 3.05 ppm; Kd could not be calculated
Experimental: The concentration of MSUT2 protein is 15 μM. Ratio of ligand to protein is indicated to the left of individual spectra.

MSUT2 [3] = target: T1, MSUT2; assay: photo-affinity labelling experiments (PAL probe BL-1138, TAMRA fluorescence SDS-PAGE); assay type: binding; conditions: for ligand-protein binding mode (decrease in tagging density with competitor): used as competitor against PAL probe BL-1138, full MSUT2 and GST-MSUT2 construct
From the text: FIG. 7A and FIG. 7B show representative data from photo-affinity labelling experiments performed using UWK-5 (lanes 1-4) and BL-1122 (lanes 5-8) as competitors. Gel visualized by fluorescence imaging using TAMRA (excitation/emission maxima 546/579 nm).

[4] = target: MSUT2/poly(A)RNA binding interaction (Homo sapiens (Human), UniProt Q6PJT7); assay: high-throughput AlphaScreen, dose-response in vitro; assay type: biochemical; conditions: AlphaScreen dose-response profile in vitro
Sequence of MSUT2/poly(A)RNA binding interaction (Q6PJT7 whole entry, species assumed): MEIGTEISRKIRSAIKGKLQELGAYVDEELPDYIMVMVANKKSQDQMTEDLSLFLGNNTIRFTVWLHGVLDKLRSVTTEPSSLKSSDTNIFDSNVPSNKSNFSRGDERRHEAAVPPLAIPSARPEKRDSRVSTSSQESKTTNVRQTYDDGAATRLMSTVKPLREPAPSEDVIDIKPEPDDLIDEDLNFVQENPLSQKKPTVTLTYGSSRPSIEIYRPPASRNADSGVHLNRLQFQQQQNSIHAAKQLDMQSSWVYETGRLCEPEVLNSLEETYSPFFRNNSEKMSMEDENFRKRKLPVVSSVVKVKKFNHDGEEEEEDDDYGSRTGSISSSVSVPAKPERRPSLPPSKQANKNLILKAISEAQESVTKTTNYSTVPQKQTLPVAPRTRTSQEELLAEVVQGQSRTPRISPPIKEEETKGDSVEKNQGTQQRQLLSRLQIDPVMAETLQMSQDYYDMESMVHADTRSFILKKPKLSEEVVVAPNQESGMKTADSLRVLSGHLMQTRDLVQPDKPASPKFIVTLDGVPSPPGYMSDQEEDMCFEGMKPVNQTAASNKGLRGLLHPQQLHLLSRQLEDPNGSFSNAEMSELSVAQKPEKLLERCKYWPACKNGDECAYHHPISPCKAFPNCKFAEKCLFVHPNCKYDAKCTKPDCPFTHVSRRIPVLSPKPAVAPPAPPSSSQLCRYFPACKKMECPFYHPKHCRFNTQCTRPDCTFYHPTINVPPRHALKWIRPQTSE
From the text: MSUT2 has been identified as a therapeutic target for the treatment of tauopathy, and MSUT2 KO has decreased the accumulation of pathological tau and reduced the formation of NFTs in tau-transgenic PS19 mice models. Screening of >100,000 compounds in an AlphaScreen and an orthogonal FP-HTS assay identified a promising thiochromenathiazole-based inhibitor of the MSUT2/poly(A)RNA binding interaction. Preliminary SAR experiments have been conducted to confirm biological activity and to identify novel biologically active compounds of interest. […] Due to challenges in functionalizing an electron-deficient tricycle scaffold, the synthesis of analogues will coincide with an effort towards the optimization of synthetic conditions.

T1 sequence (Q6PJT7 whole entry, species assumed): as above

**Q.** With `CCS(=O)(=O)c1ccc(C(=O)Nc2nc3c(s2)CSCC3)cc1` as the compound, how does the IC50 (MSUT2 [1]) read?
**A.** The IC50 was 109 µM.

**Q.** And the “biological activity in the in vitro assay (SAR summary in words)” value (shortened to “biological activity”) (MSUT2 [1])?
**A.** The value was “eliminates activity”.

**Q.** With `Nc1nc2c(s1)CSc1ccccc1-2` [BL-0957] as the compound, how does the IC50 (MSUT2 [1]) read?
**A.** The IC50 was 8.17 µM.

**Q.** With `Nc1nc2c(s1)COc1ccccc1-2` [BL-0959] as the compound, how does the IC50 (MSUT2 [1]) read?
**A.** Its IC50 is 3.91 µM.

**Q.** What about the “biological activity” value (MSUT2 [1]) of the same compound?
**A.** Its value is “tolerated”.

**Q.** For `Nc1nc2c(s1)CCc1ccccc1-2` [BL-0960], which IC50 (MSUT2 [1]) is on record?
**A.** Its IC50 is > 100 µM.

**Q.** And the “biological activity” value (MSUT2 [1])?
**A.** Its value is “loss of biological activity”.

**Q.** `Nc1nc2c(s1)CCCc1ccccc1-2` [BL-0961] was tested. Which IC50 (MSUT2 [1]) did it give?
**A.** Its IC50 is > 100 µM.

**Q.** And the “biological activity” value (MSUT2 [1])?
**A.** The value was “loss of biological activity”.

**Q.** Which IC50 (MSUT2 [1]) does the source give for `CCS(=O)(=O)c1ccc(C(=O)Nc2nc3c(s2)COc2ccccc2-3)cc1` [BL-0962] here?
**A.** Its IC50 is > 100 µM.

**Q.** How did the IC50 (MSUT2 [1]) turn out when `CCS(=O)(=O)c1ccc(C(=O)Nc2nc3c(s2)CCc2ccccc2-3)cc1` [BL-0963] was run?
**A.** Its IC50 is 45.1 µM.

**Q.** With `Nc1nc2c(s1)CSc1c(F)cccc1-2` [BL-0979] as the compound, how does the IC50 (MSUT2 [1]) read?
**A.** The IC50 was 23.6 µM.

**Q.** How did the IC50 (MSUT2 [1]) turn out when `Nc1nc2c(s1)CSc1ccc(F)cc1-2` [BL-0980] was run?
**A.** Its IC50 is 22.9 µM.

**Q.** How did the IC50 (MSUT2 [1]) turn out when `Nc1nc2c(s1)CSc1cc(F)ccc1-2` [BL-0981] was run?
**A.** Its IC50 is 22.3 µM.

**Q.** Which IC50 (MSUT2 [1]) does the source give for `Nc1nc2c(s1)CSc1c(F)cc(F)cc1-2` [BL-1017] here?
**A.** Its IC50 is 60.9 µM.

**Q.** `Nc1nc2c(s1)CSCC2` [BL-1018] was tested. Which IC50 (MSUT2 [1]) did it give?
**A.** Its IC50 is > 128 µM.

**Q.** And the “biological activity” value (MSUT2 [1])?
**A.** The value was “eliminates activity”.

**Q.** How did the IC50 (MSUT2 [1]) turn out when `Fc1ccc(CNc2nc3c(s2)CSc2ccccc2-3)cc1` [BL-1023] was run?
**A.** Its IC50 is 16.9 µM.

**Q.** With `O=S(=O)(Nc1nc2c(s1)CSc1ccccc1-2)c1ccccc1` [BL-1027] as the compound, how does the IC50 (MSUT2 [1]) read?
**A.** Its IC50 is 24.7 µM.

**Q.** For `Fc1ccc(CNc2nc3c(s2)COc2ccccc2-3)cc1` [BL-1038], which IC50 (MSUT2 [1]) is on record?
**A.** The IC50 was 20.8 µM.

**Q.** With `O=S(=O)(Nc1nc2c(s1)COc1ccccc1-2)c1ccccc1` [BL-1039] as the compound, how does the IC50 (MSUT2 [1]) read?
**A.** Its IC50 is 34.2 µM.

**Q.** Which IC50 (MSUT2 [1]) does the source give for `CCN(CC)c1ccc(CNc2nc3c(s2)CSc2ccccc2-3)cc1` [BL-1041] here?
**A.** The IC50 was 5.67 µM.

**Q.** Which IC50 (MSUT2 [1]) does the source give for `CC(C)Cc1ccc(CNc2nc3c(s2)CSc2ccccc2-3)cc1` [BL-1043] here?
**A.** The IC50 was 20.2 µM.

**Q.** For `CC(C)(C)OC(=O)NCC(=O)Nc1nc2c(s1)CSc1ccccc1-2` [BL-1045], which IC50 (MSUT2 [1]) is on record?
**A.** Its IC50 is 45.1 µM.

**Q.** For `NCC(=O)Nc1nc2c(s1)CSc1ccccc1-2` [BL-1046], which IC50 (MSUT2 [1]) is on record?
**A.** Its IC50 is 23 µM.

**Q.** Which IC50 (MSUT2 [1]) does the source give for `Nc1nc2c(s1)CSc1ncccc1-2` [BL-1047] here?
**A.** Its IC50 is 11 µM.

**Q.** Which IC50 (MSUT2 [1]) does the source give for `Fc1ccc(CNc2nc3c(s2)CCc2ccccc2-3)cc1` [BL-1051] here?
**A.** Its IC50 is 21.8 µM.

**Q.** Which IC50 (MSUT2 [1]) does the source give for `Nc1nc(-c2ccccc2)cs1` [BL-1055] here?
**A.** Its IC50 is > 128 µM.

**Q.** What about the “biological activity” value (MSUT2 [1]) of the same compound?
**A.** Its value is “eliminates activity”.

**Q.** `CCS(=O)(=O)c1ccc(C(=O)Nc2nc(-c3ccccc3)cs2)cc1` [BL-1057] was tested. Which IC50 (MSUT2 [1]) did it give?
**A.** The IC50 was > 128 µM.

**Q.** What about the “biological activity” value (MSUT2 [1]) of the same compound?
**A.** Its value is “eliminates activity”.

**Q.** With `Nc1nc2c(s1)CS(=O)(=O)c1ccccc1-2` [BL-1075] as the compound, how does the IC50 (MSUT2 [1]) read?
**A.** Its IC50 is > 128 µM.

**Q.** And the “biological activity” value (MSUT2 [1])?
**A.** Its value is “complete loss of biological activity”.

**Q.** With `COC(=O)CC[C@H](NC(=O)OC(C)(C)C)C(=O)Nc1nc2c(s1)CSc1ccccc1-2` [BL-1081] as the compound, how does the IC50 (MSUT2 [1]) read?
**A.** Its IC50 is 12.3 µM.

**Q.** For `C#CCNC(=O)Nc1nc2c(s1)CSc1ccccc1-2` [BL-1084], which IC50 (MSUT2 [1]) is on record?
**A.** Its IC50 is 23.2 µM.

**Q.** Which IC50 (MSUT2 [1]) does the source give for `C#CCCNC(=O)Nc1nc2c(s1)CSc1ccccc1-2` [BL-1085] here?
**A.** The IC50 was 12.2 µM.

**Q.** And the “biological activity” value (MSUT2 [1])?
**A.** Its value is “favorable activity”.

**Q.** `C#CCOC(=O)Nc1nc2c(s1)CSc1ccccc1-2` [BL-1088] was tested. Which IC50 (MSUT2 [1]) did it give?
**A.** Its IC50 is 14.3 µM.

**Q.** What about the “biological activity” value (MSUT2 [1]) of the same compound?
**A.** The value was “favorable activity”.

**Q.** `C#Cc1ccc(CNc2nc3c(s2)CSc2ccccc2-3)cc1` [BL-1092] was tested. Which IC50 (MSUT2 [1]) did it give?
**A.** Its IC50 is 11.7 µM.

**Q.** `O=C(NCCS(=O)(=O)O)Nc1nc2c(s1)CSc1ccccc1-2` [BL-1122] was tested. Which IC50 (MSUT2 [1]) did it give?
**A.** The IC50 was 3.26 µM.

**Q.** And the “biological activity” value (MSUT2 [1])?
**A.** Its value is “favorable activity”.

**Q.** What about the “binding affinity of ligand for MSUT2 protein” value (MSUT2 [2]) of the same compound?
**A.** Its value is “tight binding affinity”.

**Q.** What about the “ligand-protein binding mode (decrease in tagging density with competitor)” value (MSUT2 [3]) of the same compound?
**A.** The value was “competitive”.

**Q.** For `CC(=O)N1N=C(c2ccccc2)SC12CCSc1ccccc12` (stereo not drawn) [BL-1123], which IC50 (MSUT2 [1]) is on record?
**A.** Its IC50 is 16 µM.

**Q.** With `CC1(C)Sc2ccccc2-c2nc(N)sc21` [BL-1124] as the compound, how does the IC50 (MSUT2 [1]) read?
**A.** The IC50 was 51.7 µM.

**Q.** For `Nc1nc2c(s1)Cc1ccccc1-2` [BL-1125], which IC50 (MSUT2 [1]) is on record?
**A.** Its IC50 is 49.5 µM.

**Q.** `CCS(=O)(=O)c1ccc(CNc2nc3c(s2)CSc2ccccc2-3)cc1` [BL-1126] was tested. Which IC50 (MSUT2 [1]) did it give?
**A.** Its IC50 is 13.4 µM.

**Q.** With `O=C(Nc1ccccc1)Nc1nc2c(s1)CSc1ccccc1-2` [BL-1131] as the compound, how does the IC50 (MSUT2 [1]) read?
**A.** Its IC50 is 32 µM.

**Q.** For `Cc1ccc(CNc2nc3c(s2)CSc2ccccc2-3)s1` [BL-1132], which IC50 (MSUT2 [1]) is on record?
**A.** The IC50 was 7.73 µM.

**Q.** And the “biological activity” value (MSUT2 [1])?
**A.** The value was “widely tolerated”.

**Q.** With `c1ccc(CNc2nc3c(s2)CSc2ccccc2-3)cc1` [BL-1133] as the compound, how does the IC50 (MSUT2 [1]) read?
**A.** The IC50 was 7.6 µM.

**Q.** What about the “biological activity” value (MSUT2 [1]) of the same compound?
**A.** Its value is “widely tolerated”.

**Q.** For `C#CCCC1(CCNC(=O)Nc2nc3c(s2)CSc2ccccc2-3)N=N1` [BL-1138], which “fluorescence tagging of MSUT2 protein” value (MSUT2 [3]; PAL probe clicked with TAMRA-biotin-azide) is on record?
**A.** The value was “target engagement”.

**Q.** For `C=C(Cc1nc2c(s1)CSc1ccccc1-2)c1ccc(S(=O)(=O)CC)cc1` [UWK-5], which IC50 (MSUT2 [1]) is on record?
**A.** Its IC50 is 0.586 µM.

**Q.** And the “ligand-protein binding mode (decrease in tagging density with competitor)” value (MSUT2 [3])?
**A.** Its value is “competitive”.

**Q.** And the IC50 [4]?
**A.** The IC50 was 1100 nM.

From patent publication US20240342139A1, “DEVELOPMENT AND OPTIMIZATION OF THIOCHROMENOTHIAZOLE-BASED MSUT2 INHIBITORS AS CANDIDATES FOR THE TREATMENT OF TAUOPATHY” (The United States Government As Represented By the …, priority 2023, published 2024)
